A word on the IC50: it is the midpoint of a concentration-inhibition curve.

These results are taken from patent publication EP4768487A1, “FUSED LACTAM RING COMPOUND AND USE THEREOF” (Chengdu Zenitar Biomedical Technology Co., Ltd., priority 2023, dated 2025).

In one test the target is T1, PARP1 (Homo sapiens, UniProt P09874).
T1 construct: purchased BPS 80501
The test is described as follows: PARP1 enzyme assay (histone-coated plate, chemiluminescence). It is filed as biochemical. The note with it: PARP1 0.02 nM, DNA 0.8 nM, NAD+ 3.5 µM; read-out: PARP-1 IC50. Here is the method: 1.1.1. Buffer preparation: PBST: 1× PBS, 0.05% Tween-20; blocking buffer: 1× PBS, 0.05% Tween-20, 5% BSA; reaction buffer: 50 mM Tris-HCl (pH 7.5), 0.005% Tween-20, 0.01% BSA.
1.1.2. Coating: A 50 ng/mL Histone coating solution was prepared with 1× PBS and then transferred to a 384-well reaction plate at 25 µL/well. The plate was coated at 4 °C overnight.
1.1.3. Washing: After the coating was completed, the coating solution was discarded, and the plate was washed with the PBST solution. The method was as follows: PBST was transferred to the 384-well reaction plate at 50 µL/well, and the plate was left to stand for 5 min. The washing solution was then discarded, and the plate was refilled. The washing step was repeated 3 times. Finally, the reaction plate was patted dry and left for the next step of blocking.
1.1.4. Blocking: The blocking buffer was transferred to the 384-well reaction plate at 50 µL/well, and the plate was left to stand for 1 h.
Washing: After the blocking was completed, the blocking buffer was discarded, and the plate was washed 3 times with the PBST solution according to the method in step 2. Finally, the reaction plate was patted dry.
1.1.5. A 1000-fold solution of a compound was prepared and then transferred at 1 µL/well to a 96-well plate containing 199 µL of the reaction buffer. The mixture was well mixed, and then the well mixed compound solution was transferred to the 384-well reaction plate at 5 µL/well. 1.1.6. A 25/10-fold PARP1-DNA solution was prepared with the reaction buffer and then transferred to the 384-well reaction plate at 10 µL/well. For the negative control wells, 10 µL
of the DNA solution was transferred. The final concentrations of PARP1 and DNA were 0.02 nM and 0.8 nM, respectively.
1.1.9. Washing: After the reaction was completed, the reaction solution was discarded, and the plate was washed 3 times with the PBST solution according to the method in step 2. Finally, the reaction plate was patted dry.
1.1.10. A primary antibody (anti-Poly/Mono-ADP Ribose Rabbit mAb) was diluted 2000-fold with the blocking buffer and then added at 20 µL/well.
1.1.11. Washing: The primary antibody was discarded, and the plate was washed 3 times with the PBST solution according to the method in step 2. Finally, the reaction plate was patted dry.
1.1.12. A secondary antibody (anti-rabbit IgG, HRP-linked Antibody) was diluted 2000-fold with the blocking buffer and then added at 20 µL/well.
1.1.13. Washing: The secondary antibody was discarded, and the plate was washed 3 times with the PBST solution according to the method in step 2. Finally, the reaction plate was patted dry.
1.1.14. Color development: Femto-ECL Substrate A and Femto-ECL Substrate B were mixed at a ratio of 1:1, and the mixture was transferred to the 384-well reaction plate at 25 µL/well. 1.1.15. Reading: The chemiluminescence values (RLU) were measured using Envision.

The subject of test [1] is BRCA wild-type DLD-1 cells. The test is described as follows: Anti-proliferative activity against cells (CCK8): DLD-1. As to conditions: Homo sapiens, 72 h + 96 h culture. The format is cell-based. On the procedure:
BRCA wild-type DLD-1 cells were cultured in an RPMI-1640 medium containing 10% fetal bovine serum, 100 U/mL penicillin, and 100 µg/mL streptomycin, and incubated in an incubator with 5% saturated CO2 at 37 °C. When the cells grew to 80% confluence, they were collected, centrifuged at 300 g for 10 min, and then plated onto a 96-well plate at 1000 cells/well. After 24 h, different final concentrations (0 µM, 1 µM, and 10 µM) of PARPi were added, and the cells were cultured for another 72 h. The cells were subjected to medium exchange treatment (re-supplemented with PARPi at the same final concentrations) and then cultured for another 96 h. The 96-well plate was taken out.

Test [2] concerns BRCA-mutated MDA-MB-436 cells. The test is described as follows: Anti-proliferative activity against cells (CCK8): MDA-MB-436. The note with it: Homo sapiens, 72 h + 96 h culture. The format is cell-based.

T1 sequence (P09874 whole entry): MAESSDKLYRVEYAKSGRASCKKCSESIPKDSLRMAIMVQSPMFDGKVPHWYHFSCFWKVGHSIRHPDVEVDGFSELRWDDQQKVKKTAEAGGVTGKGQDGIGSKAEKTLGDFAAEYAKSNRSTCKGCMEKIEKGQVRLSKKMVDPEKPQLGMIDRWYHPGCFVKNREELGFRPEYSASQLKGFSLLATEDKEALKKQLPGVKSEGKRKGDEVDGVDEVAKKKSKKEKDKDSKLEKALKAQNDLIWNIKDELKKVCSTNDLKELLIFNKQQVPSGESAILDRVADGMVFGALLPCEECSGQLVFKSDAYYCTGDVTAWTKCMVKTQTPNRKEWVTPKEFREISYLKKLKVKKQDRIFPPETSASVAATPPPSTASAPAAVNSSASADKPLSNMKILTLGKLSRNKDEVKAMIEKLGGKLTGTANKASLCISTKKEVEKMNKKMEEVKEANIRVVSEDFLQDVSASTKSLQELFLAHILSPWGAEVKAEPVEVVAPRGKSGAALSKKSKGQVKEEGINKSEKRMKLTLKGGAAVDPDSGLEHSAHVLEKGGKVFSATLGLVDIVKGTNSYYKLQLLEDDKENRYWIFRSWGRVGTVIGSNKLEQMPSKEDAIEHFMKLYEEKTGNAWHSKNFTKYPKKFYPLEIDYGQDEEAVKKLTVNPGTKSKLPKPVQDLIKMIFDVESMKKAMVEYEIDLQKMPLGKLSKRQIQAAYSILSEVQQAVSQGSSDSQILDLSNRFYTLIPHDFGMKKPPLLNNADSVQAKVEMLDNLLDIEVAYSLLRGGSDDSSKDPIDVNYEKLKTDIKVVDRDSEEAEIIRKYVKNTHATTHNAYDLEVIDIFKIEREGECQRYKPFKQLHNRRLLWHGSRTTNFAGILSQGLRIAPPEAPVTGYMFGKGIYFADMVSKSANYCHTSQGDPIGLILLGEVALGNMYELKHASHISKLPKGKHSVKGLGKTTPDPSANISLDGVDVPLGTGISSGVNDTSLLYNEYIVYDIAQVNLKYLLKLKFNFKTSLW

Turning to `CNC(=O)c1ccc(C2CCN(CC3Cc4[nH]c(=O)c(C)cc4CO3)CC2)c(F)n1` (stereo not drawn) [Example 59, 6-Fluoro-N-methyl-5-(1-((3-methyl-2-oxo-1,5,7,8-tetrahydro-2H-pyrano[4,3-b]pyridin-7-yl)methyl)piperidin-4-yl)picolinamide], the values for the IC50 (on PARP1; in test [1]; in test [2]) were 50 to 500 nM, over 1000 nM and 300 nM, respectively.
In the same order, the values of `CCc1cc2c([nH]c1=O)CC(CN1CCN(c3ccc(C(=O)NC)nc3)CC1)OC2` (stereo not drawn) [Compound 1, 5-(4-((3-Ethyl-2-oxo-1,5,7,8-tetrahydro-2H-pyrano[4,3-b]pyridin-7-yl)methyl)piperazin-1-yl) -N-methylpicolinamide] are at most 50 nM, over 1000 nM and 300 nM.
As for `CNC(=O)c1ccc(N2CCN(C[C@H]3Cc4[nH]c(=O)c(C)cc4CO3)CC2)c(Cl)n1` [Example 95, (R)-6-chloro-N-methyl-5-(4-((3-methyl-2-oxo-1,5,7,8-tetrahydro-2H-pyrano[4,3-b]pyridin-7-yl)methyl)piperazin-1-yl)picolinamide], the IC50 was at most 50 nM at PARP1, over 1000 nM in test [1] and 10.5 nM in test [2].
In the same order, the values of `CNC(=O)c1ccc(C2=CCN(CC3Cc4[nH]c(=O)c(Cl)cc4CO3)CC2)c(F)n1` (stereo not drawn) [Example 63, 1'-((3-Chloro-2-oxo-1,5,7,8-tetrahydro-2H-pyrano[4,3-b]pyridin-7-yl)methyl)-2-fluoro-N-met hyl-1',2',3',6'-tetrahydro-[3,4'-bipyridine]-6-carboxamide] are 50 to 500 nM, over 1000 nM and 430 nM.
In the same order, the values of `CNC(=O)c1ccc(C2=CCN(CC3Cc4[nH]c(=O)c(C5CC5)cc4CO3)CC2)c(Cl)n1` (stereo not drawn) [Example 69, 2-Chloro-1'-((3-cyclopropyl-2-oxo-1,5,7,8-tetrahydro-2H-pyrano[4,3-b]pyridin-7-yl)methyl)-N-methyl-1',2',3',6'-tetrahydro-[3,4'-bipyridine]-6-carboxamide] are 50 to 500 nM, over 1000 nM and 180 nM.
In the same order, the values of `CNC(=O)c1ccc(C2=CCN(CC3Cc4[nH]c(=O)c(C)cc4CO3)CC2)c(Cl)n1` (stereo not drawn) [Example 70, 2-Chloro-N-methyl-1'-((3-methyl-2-oxo-1,5,7,8-tetrahydro-2H-pyrano[4,3-b]pyridin-7-yl)methyl)-1',2',3',6'-tetrahydro-[3,4'-bipyridine]-6-carboxamide] are 50 to 500 nM, over 1000 nM and 300 nM.
For the compound `CNC(=O)c1ccc(N2CCN(CC3Cc4[nH]c(=O)c(C5CC5)cc4CO3)CC2)c(Cl)n1` (stereo not drawn) [Example 73, 6-Chloro-5-(4-((3-cyclopropyl-2-oxo-1,5,7,8-tetrahydro-2H-pyrano[4,3-b]pyridin-7-yl)methyl)piperazin-1-yl)-N-methylpicolinamide], the values for the IC50 (at PARP1; in test [1]; in test [2]) were 50 to 500 nM, over 1000 nM and 15 nM, respectively.
In the same order, the values of `CNC(=O)c1ccc(N2CCN(C[C@H]3CCc4nc(C5CC5)c(=O)[nH]c4C3)CC2)cn1` [Example 58, (S)-5-(4-((2-Cyclopropyl-3-oxo-3,4,5,6,7,8-hexahydroquinoxalin-6-yl)methyl)piperazin-1-yl) -N-methylpicolinamide] are at most 50 nM, over 1000 nM and 140 nM.
In the same order, the values of `CCc1cc2c([nH]c1=O)CC(CN1CCN(c3ccc(C(=O)NCC(F)F)nc3F)CC1)OC2` (stereo not drawn) [Example 49, N-(2,2-Difluoroethyl)-5-(4-((3-ethyl-2-oxo-1,5,7,8-tetrahydro-2H-pyrano[4,3-b]pyridin-7-yl)methyl)piperazin-1-yl)-6-fluoropicolinamide] are at most 50 nM, over 1000 nM and 300 nM.
In the same order, the values of `[2H]C([2H])([C@H]1CCc2nc(C)c(=O)[nH]c2C1)N1CCN(c2ccc(C(=O)NC3CC3)nc2F)CC1` [Example 88, (S)-N-Cyclopropyl-6-fluoro-5-(4-((2-methyl-3-oxo-3,4,5,6,7,8-hexahydroquinoxalin-6-yl)methyl-d2)piperazin-1-yl)picolinamide] are at most 50 nM, over 1000 nM and 6.5 nM.
On to `Cc1cc2c([nH]c1=O)CC(CN1CCN(c3ccc(C(=O)NC4CC4)nc3F)CC1)OC2` (stereo not drawn) [Example 41, N-Cyclopropyl-6-fluoro-5-(4-((3-methyl-2-oxo-1,5,7,8-tetrahydro-2H-pyrano[4,3-b]pyridin-7-yl)methyl)piperazin-1-yl)picolinamide], for which the half-maximal inhibitory concentration (IC50) at PARP1 is 50 to 500 nM; in test [1] it was over 1000 nM; in test [2], 16 nM.
In the same order, the values of `CCc1cc2c([nH]c1=O)CC(CN1CCN(c3ccc(C(=O)Nc4cnn(C)c4)nc3F)CC1)OC2` (stereo not drawn) [Example 78, 5-(4-((3-Ethyl-2-oxo-1,5,7,8-tetrahydro-2H-pyrano[4,3-b]pyridin-7-yl)methyl)piperazin-1-yl) -6-fluoro-N-(1-methyl-1H-pyrazol-4-yl)picolinamide] are at most 50 nM, over 1000 nM and 2.8 nM.
In the same order, the values of `CNC(=O)c1ccc(N2CCN(CC3Cc4[nH]c(=O)c(C)cc4CO3)CC2)c(C#N)n1` (stereo not drawn) [Example 76, 6-Cyano-N-methyl-5-(4-((3-methyl-2-oxo-1,5,7,8-tetrahydro-2H-pyrano[4,3-b]pyridin-7-yl)methyl)piperazin-1-yl)picolinamide] are at most 50 nM, over 1000 nM and 9.6 nM.
In the same order, the values of `CNC(=O)c1ccc(C2=CCN(C[C@H]3CCc4nc(C)c(=O)[nH]c4C3)CC2)c(F)n1` [Example 46, (S)-2-Fluoro-N-methyl-1'-((2-methyl-3-oxo-3,4,5,6,7,8-hexahydroquinoxalin-6-yl)methyl)-1', 2',3',6'-tetrahydro-[3,4'-bipyridine]-6-carboxamide] are at most 50 nM, over 1000 nM and 6.7 nM.
With `CCc1nc2c([nH]c1=O)C[C@@H](CN1CCC(c3ccc(C(=O)NC)nc3F)CC1)CC2` [Example 54, (S)-5-(1-((2-Ethyl-3-oxo-3,4,5,6,7,8-hexahydroquinoxalin-6-yl)methyl)piperidin-4-yl)-6-fluor o-N-methylpicolinamide], the values for the IC50 (on PARP1; in test [1]; in test [2]) were 50 to 500 nM, over 1000 nM and 250 nM, respectively.
As to `CCc1cc2c([nH]c1=O)CC(CN1CCN(c3ccc(C(=O)NC)nc3C)CC1)OC2` (stereo not drawn) [Compound 38, 5-(4-((3-Ethyl-2-oxo-1,5,7,8-tetrahydro-2H-pyrano[4,3-b]pyridin-7-yl)methyl)piperazin-1-yl)-N,6-dimethylpicoli namide], the concentration for half-maximal inhibition (IC50) is at most 50 nM on PARP1, over 1000 nM in test [1] and 3.5 nM in test [2].
In the case of `CCc1cc2c([nH]c1=O)CC(CN1CCN(c3ccc(C(=O)NC4CC4)nc3)CC1)OC2` (stereo not drawn) [Compound 4, N-Cyclopropyl-5-(4-((3-ethyl-2-oxo-1,5,7,8-tetrahydro-2H-pyrano[4,3-b]pyridin-7-yl)methyl)piperazin-1-yl) picolinamide], the IC50 was at most 50 nM on PARP1, over 1000 nM in test [1] and 4 nM in test [2].
Regarding `CCc1cc2c([nH]c1=O)CC(CN1CCC(c3ccc(C(=O)NC)nc3F)CC1)OC2` (stereo not drawn) [Example 60, 5-(1-((3-Ethyl-2-oxo-1,5,7,8-tetrahydro-2H-pyrano[4,3-b]pyridin-7-yl)methyl)piperidin-4-yl)-6-fluoro-N-methylpicolinamide], the figures for the IC50 (at PARP1; in test [1]; in test [2]) were 50 to 500 nM, over 1000 nM and 120 nM, respectively.
